Experimental data published in patent US9493444B2 (Merck Patent GmbH, priority 2012, dated 2016).

Tested on: Wnt pathway (TCF-dependent transcription in HEK293 luciferase reporter cell line with ER-DSH construct)
Assay: Cellular assay for Wnt pathway activity (luciferase reporter)
Type: cell-based
Details: Homo sapiens; Wnt pathway inhibition, HEK293 luciferase reporter cells (ER-DSH, TCF promoter), 24 hours incubation, estrogen-induced
Procedure, shortened: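 Luminescent luciferase read-out after 24 h compound exposure at 1 nM to 30 μM, with TCF-driven transcription switched on by estrogen addition. IC50 values come from curve fits of data normalized against the vehicle-only control.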

Structure (SMILES)	IC50
CC(=O)N(C)CCN(C)c1cncc(Oc2ccc(C(=O)c3ccccc3)cc2)n1 [Compound 147]	200 to 1000 nM
CC(=O)N(C)CCN(C)c1cncc(Oc2ccc(-c3ccc(C(F)(F)F)cn3)cc2)n1 [Compound 162, N-Methyl-N-[2-(methyl-{6-[4-(5-trifluoro-methyl-pyridin-2-yl)-phenoxy]-pyrazin-2-yl}-amino)-ethyl]-acetamide]	200 to 1000 nM
CC(=O)N(C)CCCc1cc(Oc2ccc(-c3cccc(N4CCN(C)CC4)n3)cc2)c[n+]([O-])c1 [Compound 314, N-Methyl-N-[3-(5-{4-[6-(4-methyl-piperazin-1-yl)-pyridin-2-yl]-phenoxy}-1-oxy-pyridin-3-yl)-propyl]-acetamide]	1000 to 10000 nM
CC(=O)N(C)CCNc1cncc(Oc2ccc(-c3ccnc(C#N)c3)cc2)n1 [Compound 288, N-(2-{6-[4-(2-Cyano-pyridin-4-yl)-phenoxy]-pyrazin-2-ylamino}-ethyl)-N-methyl-acetamide]	1000 to 10000 nM
CCN(CCSc1cncc(Oc2ccc(-c3ccc(C)cn3)cc2)n1)C(C)=O [Compound 17, N-Ethyl-N-(2-{6-[4-(5-methyl-pyridin-2-yl)-phenoxy]-pyrazin-2-ylsulfanyl}-ethyl)-acetamide]	< 200 nM
CC(=O)N(C)CCCc1cncc(Oc2ccc(F)cc2)n1 [Compound 264, N-{3-[6-(4-Fluoro-phenoxy)-pyrazin-2-yl]-propyl}-N-methyl-acetamide]	1000 to 10000 nM
CC(=O)N(C)CCN(C)c1cncc(Oc2ccc(-c3cc(C)cc[n+]3[O-])cc2)n1 [Compound 174, N-Methyl-N-[2-(methyl-{6-[4-(4-methyl-1-oxy-pyridin-2-yl)-phenoxy]-pyrazin-2-yl}-amino)-ethyl]-acetamide]	200 to 1000 nM
NC(=O)CCNc1cncc(Oc2ccc(-c3ccc(CO)nc3)cc2)n1 [Compound 299, 3-{6-[4-(6-Hydroxy-methyl-pyridin-3-yl)-phenoxy]-pyrazin-2-ylamino}-propionamide]	1000 to 10000 nM
CC(=O)N(C)CCN(C)c1cncc(Oc2c(F)cc(Br)cc2F)n1 [Compound 113, N-(2-{[6-(4-Bromo-2,6-difluoro-phenoxy)-pyrazin-2-yl]-methyl-amino}-ethyl)-N-methyl-acetamide]	< 200 nM
CC(=O)N(C)CCN(C)c1cncc(OC2CCCCC2)n1 [Compound 48, N-{2-[(6-Cyclo-hexyloxy-pyrazin-2-yl)-methyl-amino]-ethyl}-N-methyl-acetamide]	1000 to 10000 nM
CC(=O)N(C)CCN(C)c1cncc(Oc2ccc(CC(N)=O)cc2)n1 [Compound 117, 2-[4-(6-{[2-(Acetyl-methyl-amino)-ethyl]-methyl-amino}-pyrazin-2-yloxy)-phenyl]-acetamide]	200 to 1000 nM
COc1ccc(Oc2cncc(N3CCCC(CNC(=O)OC(C)(C)C)C3)n2)cc1 (stereo not shown) [Compound 40, {1-[6-(4-Methoxy-phenoxy)-pyrazin-2-yl]-piperidin-3-ylmethyl}-carbamic acid tert-butyl ester]	1000 to 10000 nM
CC(=O)N(C)CCN(C)c1cncc(Oc2ccc(C)nc2)n1 [Compound 246, N-Methyl-N-(2-{methyl-[6-(6-methyl-pyridin-3-yloxy)-pyrazin-2-yl]-amino}-ethyl)-acetamide]	1000 to 10000 nM
CN(CCC1(O)CCCC1)c1cncc(Oc2ccc(F)cc2)n1 [Compound 283, 1-(2-{[6-(4-Fluoro-phenoxy)-pyrazin-2-yl]-methyl-amino}-ethyl)-cyclopentanol]	200 to 1000 nM
CC(=O)N(C)CCN(C)c1cncc(Oc2ccc(/C=C/c3ccccn3)cc2)n1 [Compound 145, N-Methyl-N-[2-(methyl-{6-[4-((E)-2-pyridin-2-yl-vinyl)-phenoxy]-pyrazin-2-yl}-amino)-ethyl]-acetamide]	< 200 nM
COC(=O)CCc1ccc(Oc2cncc(N(C)CCN(C)C(C)=O)n2)cc1 [Compound 141, 3-[4-(6-{[2-(Acetyl-methyl-amino)-ethyl]-methyl-amino}-pyrazin-2-yloxy)-phenyl]-propionic acid methyl ester]	1000 to 10000 nM

Structure (SMILES)	IC50
CC(=O)N(C)CCN(C)c1cncc(Oc2ccc(Cl)c(Cl)c2)n1 [Compound 89, N-(2-{[6-(3,4-Dichloro-phenoxy)-pyrazin-2-yl]-methyl-amino}-ethyl)-N-methyl-acetamide]	200 to 1000 nM
CCN(CCNc1cncc(Oc2cccc(F)c2)n1)C(C)=O [Compound 70, N-Ethyl-N-{2-[6-(3-fluoro-phenoxy)-pyrazin-2-ylamino]-ethyl}-acetamide]	1000 to 10000 nM
CC(=O)N(C)CCN(C)c1cncc(Oc2ccc(C3CCCCC3)cc2)n1 [Compound 99, N-(2-{[6-(4-Cyclohexyl-phenoxy)-pyrazin-2-yl]-methyl-amino}-ethyl)-N-methyl-acetamide]	1000 to 10000 nM
CC(=O)N(C)CCN(C)c1cncc(Oc2ccc(C(F)(F)F)cc2)n1 [Compound 121, N-Methyl-N-(2-{methyl-[6-(4-trifluoro-methyl-phenoxy)-pyrazin-2-yl]-amino}-ethyl)-acetamide]	200 to 1000 nM
CC(=O)N(C)CCN(C)c1cncc(Oc2ccc(-c3cc(Br)cnc3N)cc2)n1 [Compound 252, N-[2-({6-[4-(2-Amino-5-bromo-pyridin-3-yl)-phenoxy]-pyrazin-2-yl}-methyl-amino)-ethyl]-N-methyl-acetamide]	200 to 1000 nM
COc1ccc(Oc2cncc(N(C)CCCN(C)C(=O)C(F)(F)F)n2)cc1 [Compound 81, 2,2,2-Trifluoro-N-(3-{[6-(4-methoxy-phenoxy)-pyrazin-2-yl]-methyl-amino}-propyl)-N-methyl-acetamide]	1000 to 10000 nM
CC(=O)N(C)CCNc1cncc(Cc2ccccc2)n1 [Compound 319, N-[2-(6-Benzyl-pyrazin-2-ylamino)-ethyl]-N-methyl-acetamide]	200 to 1000 nM
CC(=O)N(C)CCN(C)c1cncc(OCc2ccc(F)cc2)n1 [Compound 104, N-(2-{[6-(4-Fluoro-benzyloxy)-pyrazin-2-yl]-methyl-amino}-ethyl)-N-methyl-acetamide]	1000 to 10000 nM
CC(=O)N(C)CCN(C)c1cncc(Oc2ccc(-c3cccc(N4CCN(C)CC4)n3)cc2)n1 [Compound 12]	< 200 nM
COc1ccc(Oc2cncc(N(C)CCN(C)C(=O)Cc3sccc3Cl)n2)cc1 [Compound 53, 2-(3-Chloro-thiophen-2-yl)-N-(2-{[6-(4-methoxy-phenoxy)-pyrazin-2-yl]-methyl-amino}-ethyl)-N-methyl-acetamide]	1000 to 10000 nM
N#Cc1cnccc1-c1ccc(Oc2cncc(NCCN3CCCCC3=O)n2)cc1 [Compound 296, 4-(4-{6-[2-(2-Oxo-piperidin-1-yl)-ethylamino]-pyrazin-2-yloxy}-phenyl)-nicotinonitrile]	200 to 1000 nM
CC(=O)N(C)CCCc1cncc(Oc2ccc(-c3ccc(N)cn3)cc2F)n1 [Compound 282, N-(3-{6-[4-(5-Amino-pyridin-2-yl)-2-fluoro-phenoxy]-pyrazin-2-yl}-propyl)-N-methyl-acetamide]	< 200 nM
CC(=O)Nc1ccc(-c2ccc(Oc3cncc(NCCN(C)C(C)=O)n3)cc2)cn1 [Compound 260, N-(2-{6-[4-(6-Acetylamino-pyridin-3-yl)-phenoxy]-pyrazin-2-ylamino}-ethyl)-N-methyl-acetamide]	200 to 1000 nM
CN(CCN(C)c1cncc(Oc2ccc(F)cc2)n1)C(=O)CN [Compound 284, 2-Amino-N-(2-{[6-(4-fluoro-phenoxy)-pyrazin-2-yl]-methyl-amino}-ethyl)-N-methyl-acetamide]	1000 to 10000 nM
CC(=O)N(C)CCN(C)c1cncc(Oc2ccc(-c3ccc(C)cn3)cc2F)n1 [Compound 229, N-[2-({6-[2-Fluoro-4-(5-methyl-pyridin-2-yl)-phenoxy]-pyrazin-2-yl}-methyl-amino)-ethyl]-N-methyl-acetamide]	< 200 nM
